In patent US5972883A, “Method for the treatment of neurodegenerative diseases by administering VIP, an analogue, fragment or a conjugate thereof” (Yeda Research and Development Co. Ltd., priority 1993, dated 1999):
Values joined by “and” are separate entries in the source; they are usually repeats but may differ in a detail not shown here. Identical values can stand only once. “Also recorded” adds a separate entry of the source.

Key:
[1] = test system: learning and memory in old rats; assay: Learning and memory in old animals (water pool), nasal administration; type: in vivo, rat; conditions: rats aged 18-20 months, nasal 100 μg/40 μl/day
Method: 6 Male rats aged 18-20 months were divided into hvo groups. Group 1 received daily nasal administrations of St-Nle^17 -VIP dissolved in 10% sefsol at 40% isopropanol at a dose of 100 μg/40 μl/day (20 μl/nostril). Control animals were treated with daily nasal administration of 40 μl/day of 10% sefsol and 40% isopropanol (20 μl/nostril). The administration was carried out after partial anesthetization by diethylether. Animals were thus treated for 7-19 days and then were tested by placing them in a water pool as described above.

[2] = Pharmacological experimentation: biologically active dose; type: in vivo; conditions: rat
Method: The logic of the dose design was as follows: pharmacological experimentation has shown that the biologically active dose is 7 μg per rat. The dose of 1000× the biologically active dose was chosen for this experiment.

Sprague Dawley rats [3] = assay: Repeated dose toxicity, topically applied, 13 weeks
VIP receptor = assay: Affinity studies: displacement of radiolabeled VIP on cerebral cortical astrocytes; type: binding
Method: (a) Cerebral cortical astrocytes were obtained and cultured as described before^16,17). Binding studies were performed on intact cells, 5-7 days after replating at 4° C. in phosphate buffered saline containing 0.1% bovine serum albumin. Cells were divided into two groups. Group 1 was incubated with varying concentrations of St-VIP and Group 2 was incubated with varying concentrations of St-Nle^17 -VIP. After 30 min. incubation with the VIP analogue, 50 pM of ^125 -VIP^(14) was added and incubated for an hour. The media was then removed and cells were washed three times by rapid addition and removal of 1 ml phosphate buffered saline at 4° C. The labeled cells were then dissolved in 0.2 N NaOH and transferred for radioactivity counting by an automatic gamma counter (Wallac 1470 Wizard).

[4] = test system: electrically blocked neurons (mouse spinal cord neurons); type: cell-based
[5] = Stability of test material; type: physicochemical
Sprague Dawley rats [6] = assay: Single dose toxicity, orally administered; type: in vivo, rat
Source text: The single dose toxicity of St-Nle^17 -VIP administered orally was investigated in 4 groups of six male and six female rats (Sprague Dawley (S.D.) strain, purchased from Levinstein, Yokneam, Israel.)

[7] = test system: learning and memory in AF64A-injected rats; assay: Morris water maze, AF64A animal model of Alzheimer, I.C.V. drug administration; type: in vivo, rat; conditions: 100 ng I.C.V. daily
Method: 13 Male rats were injected intracerebroventricularly (I.C.V.) at a rate of 0.21 μl/min, using plastic tubing (PE-20) attached to 25G needle. 5 rats serving as control received an injection of saline (2 μl/side), 8 other animals received injections of ethylcholine aziridium (AF64A) (3 nmol/2 μl/side). AF64A is an inducer of cholinergic hypofunctions which mimics some of the cholinergic hypofunction reported in Alzheimer's disease and is used for preparing animal models of Alzheimer^(22).
Animals were cannulated following injection to allow I.C.V. drug application and left to recover for a week. Learning and memory tests were conducted using the swim maze test. The 8 animals injected with AF64A were divided into two equal groups and were thereafter injected daily with either saline or 100 ng I.C.V. of St-Nle^17 -VIP. The five control rats (see above) were injected with saline. Following seven injection days, behavioral assays were conducted for an additional 14 days on both control and test animals. […]
(§1) Rats were placed in a circular pool, 1.26 m in diameter, 0.2 m deep, equipped with a clear plexiglas column, with a 13.3 cm platform reaching just below the surface of the water (22-24° C.). […] The latency of reaching the platform was recorded for each rat (in seconds) and the changes over days of training were graphed, which reflect learning and memory.

[8] = test system: Neurons from rat cerebral cortex treated with β-amyloid peptide fragment 25-35; assay: Survival of neurons treated with fragment 25-35 of β-amyloid peptide
[9] = test system: learning and memory in AF64A-treated rats; assay: Morris water maze, AF64A animal model of Alzheimer, nasal drug administration; type: in vivo, rat; conditions: daily nasal administration (St-Nle17-VIP 70 μg/40 μl; peptide 6 50 μg/40 μl)
Method: 8 Male rats were all treated with AF64A as described above. 10 days after AF64A administration 5 animals received daily nasal administration of St-Nle^17 -VIP dissolved in 10% sefsol and 40% isopropanol at a concentration of 70 μg/40 μl (20 μl administered through each nostril). 3 Animals received daily nasal administration of 50 μg/40 μI of peptide 6, (20 μl/nostril) dissolved in 10% sefsol and 40% isopropanol. 6 Control animals received daily nasal administration of 10% sefsol and 40% isopropanol at an amount of 40 μl/day (20 μl nostril). The animals were partially anesthetized by diethylether prior to nasal administration. Both control and test animals were daily treated with 50,000 units of durabiotic antibiotics to avoid infection. Following 7 days of nasal administration behavioral tests were conducted on both control and test animals for an additional 8 days. […]
as §1

[10] = Biodistribution following intranasal administration of radioiodinated peptide; type: in vivo, rat; conditions: rats
Method: St-Nle^17 -VIP was labeled with radioactive iodine and 3×10^6cpn/2 μl/rat of the labeled substance were applied intranasally to 250-300 g rats. Animals were sacrificed 15 mins. following drug administration.
Radioactive tissue samples were then homogenized and subjected to centrifugation (5,400×g for 25 mins.). Supernatants were then subjected to HPLC analysis against St-Nle^17 -VIP as a marker. Elution was carried out using acetonitrile gradient at fraction 30. Samples were then weighed and monitored for radioactivity in a gamma counter. To assess for the integrity of the incorporated St-Nle^17 -VIP radioactive tissue, supernatants were subjected to HPLC analysis. Radioactive tissue samples were hornogenized, subjected to centrifugation and supernatnants analyzed by HPLC fractionation against St-Nle-VIP as a marker (eluting using an acetonitrile gradient at fraction 30).

Sprague Dawley rats [11] = assay: Single dose toxicity, intravenously injected (tail vein); type: in vivo, rat
Source text: The single dose toxicity of St-Nle^17 -VIP injected intravenously, in to the tail vein, was investigated in 4 groups of six male and six female rats (Sprague Dawley (S.D.) strain, purchased from Levinstein, Yokneam, Israel).

[12] = displacement of radiolabeled VIP, intact astrocytes, 4° C.
[13] = i.v., 7 μg/rat + vehicle (group 3)
[14] = i.v., 7,000 μg/rat + vehicle (group 4)

Stearoyl-noricucine^17 -VIP [St-Nle^17 -VIP]
learning and memory (latency of reaching the platform) [1]: showed a greater improvement in the latency of reaching the platform over time as compared to control untreated animals
biologically active dose [2]: 7 μg per rat
body weight gain or food consumption (Sprague Dawley rats [3]; topical daily): No significant differences were detected
clinical pathology (hematology, clinical chemistry) (Sprague Dawley rats [3]; topical daily): No dose related or sex related biologically meaningful treatment effects were detected
organ weight analysis (Sprague Dawley rats [3]; topical daily): No treatment related differences were noted
adverse effects (Sprague Dawley rats [3]; topical daily for 13 weeks, 7, 700, 3500 μg): No dose related adverse effects were detected; also recorded: did not cause any serious adverse effects at any of the dosages tested
mortality (Sprague Dawley rats [3]; topical daily, 7, 700, 3500 μg): No mortality associated with drug application was noted
affinity to the high affinity receptor relative to VIP (VIP receptor; VIP value from reference 19): about 100 fold
affinity relative to St-VIP, high concentration zone (low affinity zone) (VIP receptor; [12]): 10 fold
affinity relative to St-VIP, low concentration (high affinity) zone (VIP receptor; [12]): 10 fold
potency relative to native VIP in protecting electrically blocked cells from death [4]: about 100 fold
peak of active concentrations ([4]; 1 μM tetrodotoxin): broadening of the peak of active concentrations
stability, powder [5]: for a year
body weight gain and food consumption (Sprague Dawley rats [6]; oral single dose): normal body weight gain
side effects (Sprague Dawley rats [6]; oral single dose): No necrotic reactions, or any other side effects were observed
mortality (Sprague Dawley rats [6]; oral single dose, up to 7000 μg/rat): No mortality occurred
acute oral LD50 (Sprague Dawley rats [6]; oral, rat): greater than 7000 μg/rat
learning and memory (latency of reaching the platform) [7]: showed recovery of the learning and memory abilities, essentially similar to that of control animals
most effective protective concentration (peak activity) against β-amyloid associated death ([8]; 25 μM β-amyloid fragment 25-35): 10^-13 M
protection of neurons from β-amyloid peptide fragment toxicity ([8]; 25 μM β-amyloid fragment 25-35, 5 days): able to protect neurons from the toxic effect of β-amyloid peptide fragment at all concentrations tested
concentrations protecting also against naturally occurring cell death ([8]; FIG. 7 experiment): 10^-10 M and 10^-9 M
learning and memory (latency of reaching the platform) [9]: control animals (.quadrature.) show smaller improvement in the latency of reaching the platform
distribution to brain after nasal administration ([10]; 15 mins. after intranasal administration): able to reach the brain
integrity of peptide in tissue (HPLC of radioactive supernatants) ([10]; intranasal): reaches its target organs in an active, intact form
animals with necrotic reaction at the site of injection (tail skin) (Sprague Dawley rats [11]; [13]): 58%
mortality (Sprague Dawley rats [11]; [13]): No mortality occurred in groups 1 and 3
animals with necrotic reaction at the site of injection (tail skin) (Sprague Dawley rats [11]; [14]): all the animals
mortality (Sprague Dawley rats [11]; [14]): Seven rats (3 male and 4 female out of 12) died
time of death after administration (Sprague Dawley rats [11]; [14]): ≤ 3 h
other side effects in surviving rats (Sprague Dawley rats [11]; i.v., all groups): No other side effects were observed
body weight gain versus vehicle control (Sprague Dawley rats [11]; i.v., two weeks study period): increased weight gain
acute intravenous LD50, combined males and females (Sprague Dawley rats [11]; i.v., with vehicle, combined males and females): less than 7,000 μg
acute intravenous LD50, males (Sprague Dawley rats [11]; i.v., with vehicle, male rats): 7,000 μg/male rat
